These are literature values, as cited in patent US6784266B2, “Dual stimuli-responsive hydrogels and their synthetic methods” (Korea Institute of Science and Technology, priority 2002, dated 2004).

The conditions of this series: pKa stated for the sulfonamide reagent; no measurement method described.

In general, pKa refers to the pH at which an ionisable group is half protonated. With `COc1ccc(NS(=O)(=O)c2ccc(N)cc2)nn1` [sulfamethoxypyridazine], the pKa was 6.7.
